Test results taken from the NIST ThermoML archive (doi:10.1016/j.jct.2009.05.018).
Numbers after ± are expanded uncertainties.

Assay: molar enthalpy of vaporization or sublimation
Settings: 298.15 K, Calvet microcalorimetry

Cn1ccc2ccccc21 [1-methylindole] showed a molar enthalpy (Liquid) of 14.9 ± 0.765 kcal/mol.
Compound Cc1cc2ccccc2[nH]1 [2-methylindole] has a molar enthalpy (Crystal) of 21.2 ± 1.15 kcal/mol.
Cc1c[nH]c2ccccc12 [3-methyl-1H-indole] showed a molar enthalpy (Crystal) of 21.6 ± 0.908 kcal/mol.
